# Source: patent US20220323446A1 (Amgen Inc., priority 2021, published 2022)
# Legend:
# [1] = Dose comparison study 960 mg QD vs 240 mg QD, pharmacokinetics; conditions: both 240 mg and 960 dosing
# [2] = Sotorasib dose reduction and discontinuation (safety analysis set); conditions: for Discontinuation reason: Adverse event / Discontinuation reason: Death / Discontinuation reason: Disease progression / Subjects who discontinued sotorasib: subjects with any dose reduction;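 for all read-outs here: counts of patients in the safety analysis set, where lowering the dose was allowed upon certain adverse events such as hepatotoxicity, nausea or vomiting and diarrhea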
# [3] = biological target: CYP3A4 (Homo sapiens, UniProt P08684); test: Phase 1 interaction study, sotorasib with multiple doses of rifampin (strong CYP3A4 inducer); type: in vivo; design: from tissue; host or cells: in vivo, healthy human subjects (liver or gut enzyme)
# CYP3A4, sequence (P08684 whole entry): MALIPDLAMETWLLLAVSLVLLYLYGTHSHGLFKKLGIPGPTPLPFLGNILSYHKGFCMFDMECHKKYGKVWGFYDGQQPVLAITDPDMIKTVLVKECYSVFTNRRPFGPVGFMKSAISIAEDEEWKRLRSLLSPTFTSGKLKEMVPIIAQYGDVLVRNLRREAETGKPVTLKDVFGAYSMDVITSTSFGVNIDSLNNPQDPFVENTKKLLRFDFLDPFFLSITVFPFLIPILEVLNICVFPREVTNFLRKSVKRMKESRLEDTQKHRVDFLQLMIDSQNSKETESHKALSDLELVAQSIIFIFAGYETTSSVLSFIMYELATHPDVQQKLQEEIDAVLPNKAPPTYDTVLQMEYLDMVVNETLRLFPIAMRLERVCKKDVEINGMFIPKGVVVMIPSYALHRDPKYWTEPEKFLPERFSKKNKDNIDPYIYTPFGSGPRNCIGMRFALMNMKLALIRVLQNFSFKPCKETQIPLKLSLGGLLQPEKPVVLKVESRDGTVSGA
# [4] = 427 subjects, sotorasib monotherapy, any tumor type and any dose
# [5] = Any tumor types 180 mg QD fasted (n = 6)
# [6] = Any tumor types 360 mg QD fasted (n = 27)
# [7] = Any tumor types 480 mg BID fed (n = 26)
# [8] = Any tumor types 720 mg QD fasted (n = 11)
# [9] = Any tumor types 960 mg QD fasted (n = 339)
# [10] = Any tumor types 960 mg QD fed (n = 18)
# [11] = Total any tumor types and any dose (n = 427)
# [12] = of the 56 subjects who had a dose reduction
# [13] = Total any tumor types and any dose (N = 56)
structure (smiles),measurement,setting,value
"C=CC(=O)N1CCN(c2nc(=O)n(-c3c(C)ccnc3C(C)C)c3nc(-c4c(O)cccc4F)c(F)cc23)[C@@H](C)C1 (atropisomer, axis not shown; (M)) [sotorasib, 6-fluoro-7-(2-fluoro-6-hydroxyphenyl)-(1M)-1-[4-methyl-2-(propan-2-yl)pyridin-3-yl]-4-[(2S)-2-methyl-4-(prop-2-enoyl)piperazin-1-yl]pyrido[2,3-d]pyrimidin-2(1H)-one]",Exposures on Day 8 lower than on Day 1,[1],30-40%
same,subjects with a dose reduction,[2]; [4],13.1%
same,subjects with dose reduction due to adverse events (AEs),[2]; [4],10.8%
same,Number of subjects with any dose reduction,[2]; [5],0 (0.0) n (%)
same,Primary reason for dose reduction: Adverse event,[2]; [5],0 (0.0) n (%)
same,Number of subjects with any dose reduction,[2]; [6],3 (11.1) n (%)
same,Primary reason for dose reduction: Adverse event,[2]; [6],3 (11.1) n (%)
same,Number of subjects with any dose reduction,[2]; [7],3 (11.5) n (%)
same,Primary reason for dose reduction: Adverse event,[2]; [7],2 (7.7) n (%)
same,Number of subjects with any dose reduction,[2]; [8],2 (18.2) n (%)
same,Primary reason for dose reduction: Adverse event,[2]; [8],1 (9.1) n (%)
same,Number of subjects with any dose reduction,[2]; [9],36 (13.6) n (%)
same,Primary reason for dose reduction: Adverse event,[2]; [9],38 (11.2) n (%)
same,Number of subjects with any dose reduction,[2]; [10],2 (11.1) n (%)
same,Primary reason for dose reduction: Adverse event,[2]; [10],2 (11.1) n (%)
same,Number of subjects with any dose reduction,[2]; [11],56 (13.1) n (%)
same,Primary reason for dose reduction: Adverse event,[2]; [11],46 (10.8) n (%)
same,subjects who discontinued due to progression of disease,[2]; [12],44.6%
same,subjects who discontinued treatment with sotorasib,[2]; [12],69.6%
same,subjects whose reason to discontinue was due to AEs,[2]; [12],21.4%
same,Discontinuation reason: Adverse event,[2]; 180 mg QD fasted (N = 0),0 (0.0) n (%)
same,Discontinuation reason: Death,[2]; 180 mg QD fasted (N = 0),0 (0.0) n (%)
same,Discontinuation reason: Disease progression,[2]; 180 mg QD fasted (N = 0),0 (0.0) n (%)
same,Subjects who discontinued sotorasib,[2]; 180 mg QD fasted (N = 0),0 (−) n (%)
same,Discontinuation reason: Adverse event,[2]; 360 mg QD fasted (N = 3),0 (0.0) n (%)
same,Discontinuation reason: Death,[2]; 360 mg QD fasted (N = 3),0 (0.0) n (%)
same,Discontinuation reason: Disease progression,[2]; 360 mg QD fasted (N = 3),2 (66.7) n (%)
same,Subjects who discontinued sotorasib,[2]; 360 mg QD fasted (N = 3),2 (66.7) n (%)
same,Discontinuation reason: Adverse event,[2]; 480 mg BID fed (N = 3),2 (66.7) n (%)
same,Discontinuation reason: Death,[2]; 480 mg BID fed (N = 3),0 (0.0) n (%)
same,Discontinuation reason: Disease progression,[2]; 480 mg BID fed (N = 3),0 (0.0) n (%)
same,Subjects who discontinued sotorasib,[2]; 480 mg BID fed (N = 3),2 (66.7) n (%)
same,Discontinuation reason: Adverse event,[2]; 720 mg QD fasted (N = 2),0 (0.0) n (%)
same,Discontinuation reason: Death,[2]; 720 mg QD fasted (N = 2),0 (0.0) n (%)
same,Discontinuation reason: Disease progression,[2]; 720 mg QD fasted (N = 2),2 (100.0) n (%)
same,Subjects who discontinued sotorasib,[2]; 720 mg QD fasted (N = 2),2 (100.0) n (%)
same,Discontinuation reason: Adverse event,[2]; 960 mg QD fasted (N = 46),9 (19.6) n (%)
same,Discontinuation reason: Death,[2]; 960 mg QD fasted (N = 46),0 (0.0) n (%)
same,Discontinuation reason: Disease progression,[2]; 960 mg QD fasted (N = 46),21 (45.7) n (%)
same,Subjects who discontinued sotorasib,[2]; 960 mg QD fasted (N = 46),32 (69.6) n (%)
same,Discontinuation reason: Adverse event,[2]; 960 mg QD fed (N = 2),1 (50.0) n (%)
same,Discontinuation reason: Death,[2]; 960 mg QD fed (N = 2),0 (0.0) n (%)
same,Discontinuation reason: Disease progression,[2]; 960 mg QD fed (N = 2),0 (0.0) n (%)
same,Subjects who discontinued sotorasib,[2]; 960 mg QD fed (N = 2),1 (50.0 n (%)
same,Discontinuation reason: Adverse event,[2]; [13],12 (21.4) n (%)
same,Discontinuation reason: Death,[2]; [13],0 (0.0) n (%)
same,Discontinuation reason: Disease progression,[2]; [13],25 (44.6) n (%)
same,Subjects who discontinued sotorasib,[2]; [13],39 (69.6) n (%)
same,Geometric mean sotorasib AUOnf,[3]; 960 mg sotorasib with multiple doses of rifampin 600 mg,12400 ng·h/mL
same,safety and tolerability,"[3]; coadministered with 600 mg rifampin or alone, healthy subjects",safe and well tolerated
same,CYP3A4 substrate status,[3]; concluded from multiple doses of rifampin,is a CYP3A4 substrate
same,AUC(0-inf),"[3]; human, plasma, 960 mg",25600 ng·h/mL
same,Cmax,"[3]; human, plasma, 960 mg",6350 ng/mL
same,decrease of sotorasib AUOnf,[3]; multiple doses of rifampin,51%
same,decrease of sotorasib Cmax,[3]; multiple doses of rifampin,35%
